The test system of assay [1] is proliferating T cells. Briefly: PMET activity measured by WST-1/PMS reduction. Format: cell-based. Conditions: Homo sapiens, T-cell, read-out: IC50 inhibition of PMET (WST-1/PMS reduction). As for the experimental part:
(§1) Immediately prior to experiments, frozen PBMC were thawed, centrifuged at 1400 rpm in a Multifuge 3 s (Heraeus) for 4 min, washed in RPMI+10% FCS and resuspended in T cell medium (RPMI+10% FCS+10 μM 2-mercaptoethanol (Sigma), 1×glutamine, 1×non-essential amino acids (Gibco)) at 2×10^6 cells/mL. Cells (2×10^5) were activated by adding 10 μg/mL anti-CD3 and 5 μg/mL anti-CD28 and 20 U/mL IL-2 per well. Cells were incubated at 37° C. in a humidified incubator maintained at 5% CO2 for 4 to 5 days until large numbers of large spherical aggregates or “bursts” of lymphocytes were observed. Activated proliferating T cells were pooled from the wells for further experiments. Resting T cells were incubated for the same length of time but in the presence of 20 U/mL IL-2 only.
(§2) WST-1/PMS reduction rates were measured in a microplate format as described previously (Berridge and Tan, 1998). […] WST-1 reduction was measured in real time at 450 nm over 30-60 min in a BMG FLUOstar OPTIMA plate reader.
(§3) The effect of PXD on PMET (FIG. 1A) was investigated by measuring reduction of the cell impermeable tetrazolium dye, WST-1, in the presence of its obligate intermediate electron acceptor, 1 mPMS (WST-1/PMS reduction). […] The effect of PXD on proliferation (FIG. 1B) was determined by measuring intracellular reduction of the tetrazolium salt, MTT.

For assay [2], the system named is resting T cells. Briefly: PMET activity measured by WST-1/PMS reduction. The settings on record: Homo sapiens, T-cell, read-out: IC50 inhibition of PMET (WST-1/PMS reduction). Format: cell-based. As for the experimental part:
as §1, §2, §3

The subject of assay [3] is responder T cells. Briefly: HLA-mismatched mixed lymphocyte reaction in the presence of PXD. The format is cell-based, human. The settings on record: 10 μM PXD on day 0, analysed day 8. How it is done: Mixed lymphocyte reactions were established using unrelated, HLA-mismatched healthy donor blood samples as donor/recipient pairs. Stimulator PBMC were γ-irradiated with 30 Gy as described previously (Zenhausen et al., 2007). Responder PBMC were washed twice in PBS, 5,6-carboxy-succinimidyl-fluorescein-ester (CSFE)-labelled (1.25 μM, Sigma) at room temperature for 5 minutes, and washed twice in PBS/10% FCS. Two hundred thousand stimulator and responder cells were added per well at a 1:1 ratio in a 96 U-well plate in T cell medium. Stimulator and responder cells were also plated alone, and all cells were cultured in a 5% CO2, 37° C. humidified incubator. Viability, CFSE fluorescence and cell surface antigen expression were determined by flow cytometry. Cells were washed twice in FACS buffer (PBS, 2% FCS), and resuspended in 50 μL/5×10^5 cells and analysed on a Becton Dickinson LSRII FACS analyser using FlowJo (TreeStar) software.
The ability of PXD to induce apoptosis in proliferating T cells was further tested in a HLA-mismatched MLR. CFSE labelled responder cells were mixed with HLA-mismatched γ-irradiated stimulator cells in the presence of 0.1% DMSO (control) and 10 μM PXD on day 0. Responder cells were analysed for proliferation (CFSEIO) and viability (AV^−) at day 8 to allow exposure of proliferating responder cells to the drug for several days.

Assay [4] relates to AML-derived HL60. As to the kind of experiment: Sensitivity of cell types to PXD, viability by AV/PI staining. The settings on record: Homo sapiens, HL-60; HL60, 10 μM PXD for 24 h; read-out: [% viable blasts after PXD exposure]/[% viable blasts after 0.1% DMSO exposure]. Format: cell-based. How it is done: (§4) FIG. 6. Sensitivity of different cell types to PXD. Different cell types were incubated with 10 μM PXD for 24 h and viability was determined by AV/PI staining and reported as [% viable blasts after PXD exposure]/[% viable blasts after 0.1% DMSO exposure]. Percentage values are as follows: AML-derived HL60: 16±5 and HL60p°: 54±6, ALL-derived MOLT-4: 44±4, MM-derived U226: 59±6 and RPMI 8226: 12±4, primary AML blasts: 64±5, primary ALL blasts: 23±4, normal BM: 89±5, proliferating T cells: 69±4, resting T cells: 98±6. Results from cell lines are presented as the average±SEM of at least 3 separate experiments, results from bone marrow samples are presented as the average±SD of single experiments performed in duplicate.
(§5) Cell lines were grown in RPMI-1640 medium (GIBCO-BRL, Grand Island, N.Y.) supplemented with 5% (v/v) fetal calf serum, 2 mM […], 25 μg/mL penicillin, 25 μg/mL streptomycin, 50 μg/mL uridine and 1 mM pyruvate to densities of 1-2×10^6 cells/mL (exponential stage), at 37° C. in a humidified incubator maintained at 5% CO2.
(§6) Cells were centrifuged at 1400 rpm in a Multifuge 3 s (Heraeus) for 4 min at room temperature, washed in phosphate buffered saline solution, pH 7.3 (PBS) and resuspended in Annexin V binding buffer. Small aliquots (0.5-1×10^6 cells) were transferred to 1.5 mL tubes and spun at 1400 rpm in a Multifuge 3 s (Heraeus) for 4 min. Most supernatant was removed and 5 μL PI and 5 μL FITC-labelled AV was added to the wet pellets which were vortexed. After 30 min in the dark on ice, 500 μl of AV binding buffer was added, the cells were centrifuged for 2 min at 1400 rpm, washed once with AV binding buffer and resuspended in 300 μL of AV binding buffer in FACS tubes. Staining was analyzed by flow cytometry using a Becton Dickinson Canto II FACS analyser using FlowJo (TreeStar) software.

Assay [5] concerns MM-derived U226. The description is as above. Format: cell-based. The settings on record: Homo sapiens; U226, 10 μM PXD for 24 h; read-out: [% viable blasts after PXD exposure]/[% viable blasts after 0.1% DMSO exposure]. How it is done:
as §4, §5, §6

Structures are written as SMILES. A value given as a limit tells only on which side of the number the result lay.

As to `Oc1ccc(C2=Cc3ccc(O)cc3OC2)cc1` [PXD, Isoflav-3-en-4′,7-diol], the values for the IC50 in assay [1] and in assay [2] were 46 µM and greater than 200 µM, respectively. In addition, the “resting responder cell population (CD3+CFSEhiAV−)” value in assay [3] is “present in both control and PXD treated MLR”. The “proliferating allogeneic T cells (CD3+CFSloAV− population)” value in assay [3] (control MLR 46.5%) came out at 2%. Further, the viability at 10 µM in assay [4] was 16 ± 5%; in assay [5] it was 59 ± 6%.
